From the supplement of paper PMC10307832

Key:
Experiment in all cases: relative viability (nuclei count vs DMSO), 5 days (fraction); higher = more cells survive
[1] = compound: C1CSC2=C(C(=O)N1)SC3=C2C=C(C=C3)O [kb NB 142-70] + CC(=O)Nc1cccc(-n2c(=O)n(C3CC3)c(=O)c3c(Nc4ccc(I)cc4F)n(C)c(=O)c(C)c32)c1 [Trametinib] (partner 0.02 µM)
How it was run: (§1)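 Lung cancer cell lines in 1536-well plates got either a single drug or a fixed anchor-drug dose together with five library-drug doses (not always all listed) in √10 steps, by pin tool, on the day after seeding. Nuclei were counted after 5 days, and relative viability is the treated-to-vehicle ratio of nuclei counts. Values are medians of duplicate plates.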

[2] = compound: NCC(=O)Nc1ccc(-n2nc(C(F)(F)F)cc2-c2ccc3c(ccc4ccccc43)c2)cc1 + O=C(CCCCCCC(=O)Nc1ccccc1)NO [Vorinostat] (partner 1 µM)
How it was run: as §1

[3] = compound: NCC(=O)Nc1ccc(-n2nc(C(F)(F)F)cc2-c2ccc3c(ccc4ccccc43)c2)cc1 + N=C(N)NC(=N)NCCc1ccccc1 [Phenformin] (partner 250 µM)
How it was run: as §1

[4] = compound: NCC(=O)Nc1ccc(-n2nc(C(F)(F)F)cc2-c2ccc3c(ccc4ccccc43)c2)cc1 + Nc1ncn([C@H]2C[C@H](O)[C@@H](CO)O2)c(=O)n1 [Decitabine] (partner 2 µM)
How it was run: as §1

Q: How did the relative viability ([1]; first compound 0.1 µM) turn out when UMC-11 was run?
A: 0.668

Q: And the relative viability ([1]; first compound 1 µM)?
A: 0.735

Q: What about the relative viability ([1]; first compound 3.162 µM) of the same cell line?
A: 0.464

Q: And the relative viability ([2]; first compound 0.02 µM)?
A: 0.337

Q: What about the relative viability ([2]; first compound 0.06325 µM) of the same cell line?
A: 0.434

Q: What about the relative viability ([2]; first compound 0.2 µM) of the same cell line?
A: 0.511

Q: And the relative viability ([2]; first compound 0.6325 µM)?
A: 0.355

Q: What about the relative viability ([2]; first compound 2 µM) of the same cell line?
A: 0.383

Q: And the relative viability ([3]; first compound 0.02 µM)?
A: 0.292

Q: What about the relative viability ([3]; first compound 0.06325 µM) of the same cell line?
A: 0.337

Q: And the relative viability ([3]; first compound 0.2 µM)?
A: 0.334

Q: What about the relative viability ([3]; first compound 0.6325 µM) of the same cell line?
A: 0.319

Q: And the relative viability ([3]; first compound 2 µM)?
A: 0.335

Q: And the relative viability ([4]; first compound 0.02 µM)?
A: 0.63

Q: And the relative viability ([4]; first compound 0.06325 µM)?
A: 0.593

Q: And the relative viability ([4]; first compound 0.2 µM)?
A: 0.557

Q: What about the relative viability ([4]; first compound 0.6325 µM) of the same cell line?
A: 0.539

Q: What about the relative viability ([4]; first compound 2 µM) of the same cell line?
A: 0.701
